The values below come from patent publication US7491819B1 (priority 2004, dated 2009).

Each structure is given as a SMILES string. pEC50, pIC50: −log10 of the molar value. Like-named read-outs stand apart in the source and are kept apart here.

In general, melting point refers to the temperature, or range, at which the solid turns liquid.

Data set [1] addresses T1, HIV-integrase (Human immunodeficiency virus type 1 group M subtype B, UniProt P12497).
T1 construct: Recombinant integrase (0.26 ng) was incubated with the beads
Put plainly: HIV-Integrase Inhibition Activity (SPA bead strand-transfer assay). The class given is biochemical. Put shortly:
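Strand-transfer read-out: CPM from P33-labelled target DNA (0.1 fmol) joined to bead-bound biotin substrate DNA (5 pmole), with EDTA stop at 10 mM final. Integrase (0.26 ng) prebound to streptavidin SPA beads 90 min, 37° C, and washed before adding inhibitor.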

Data set [2] relates to NL-Rluc virus. The experiment in a line: Inhibition of HIV replication (recombinant NL-Rluc virus, luciferase). The class given is cell-based. The following applies: Human immunodeficiency virus 1, read-out: Inhibition of HIV replication.
Setting [3] is: Table 1, read-out: Activity (HIV-integrase inhibition, IC50 class).
Setting [4] is: Table 2a, read-out: HIV-Integrase Inhibition Activity.

The compound `O=C(NCc1ccc(F)cc1)c1nc2n(c(=O)c1O)CCOC2` [Example 1, Pyrimido[2,1-c][1,4]oxazine-2-carboxamide, N-[(4-fluorophenyl)methyl]-4,6,7,9-tetrahydro-3-hydroxy-4-oxo-] gave a melting point of 211 °C. For the same compound, in data set [1] (setting [3]), the pIC50 is 7.00 to 8.70.
Consider `Cc1cc(CNC(=O)c2nc3n(c(=O)c2O)CCOC3)ccc1F` [Example 2, Pyrimido[2,1-c[]1,4]oxazine-2-carboxamide, N-[(4-fluoro-3-methylphenyl)methyl]-4,6,7,9-tetrahydro-3-hydroxy-4-oxo-], for which the melting point is 206 to 208 °C. Further, the pIC50 in data set [1] (setting [3]) was 7.00 to 8.70.
Taken in the same sequence, the figures for `CC1OCCn2c1nc(C(=O)NCc1ccc(F)cc1)c(O)c2=O` (centres unmarked) [Example 4, Pyrimido[2,1-c][1,4]oxazine-2-carboxamide, N-[(4-fluorophenyl)methyl]-4,6,7,9-tetrahydro-3-hydroxy-9-methyl-4-oxo-] were 165 to 167 °C and 7.00 to 8.70.
Taken in the same sequence, the figures for `Cc1cc(CNC(=O)c2nc3n(c(=O)c2O)CCOC3C)ccc1F` (centres unmarked) [Example 5, Pyrimido[2,1-c][1,4]oxazine-2-carboxamide, N-[(4-fluoro-3-methylphenyl)methyl]-4,6,7,9-tetrahydro-3-hydroxy-9-methyl-4-oxo-] were 134 °C and 7.00 to 8.70.
Taken in the same sequence, the figures for `CC1OCCn2c1nc(C(=O)NCc1ccc(Cl)c(Cl)c1)c(O)c2=O` (centres unmarked) [Example 6, Pyrimido[2,1-c][1,4]oxazine-2-carboxamide, N-[(3,4-dichlorophenyl)methyl]-4,6,7,9-tetrahydro-3-hydroxy-9-methyl-4-oxo-] were 192 °C and 7.00 to 8.70.
As to `CC1OCCn2c1nc(C(=O)NCc1ccc(F)c(Cl)c1)c(O)c2=O` (centres unmarked) [Example 7, Pyrimido[2,1-c][1,4]oxazine-2-carboxamide, N-[(3-chloro-4-fluorophenyl)methyl]-4,6,7,9-tetrahydro-3-hydroxy-9-methyl-4-oxo-], the melting point was 172 °C. Further, in data set [1] (setting [3]), the pIC50 was 7.00 to 8.70.
The like results for `COc1ncccc1-c1cc(F)ccc1CNC(=O)c1nc2n(c(=O)c1O)CCOC2(C)C` [Example 76, Pyrimido[2,1-c][1,4]oxazine-2-carboxamide, N-[[4-fluoro-2-(2-methoxy-3-pyridinyl)phenyl]methyl]-4,6,7,9-tetrahydro-3-hydroxy-9,9-dimethyl-4-oxo-] were, in that order, 227 °C and 7.00 to 8.70.
On to `CCOP(=O)(OCC)c1cc(F)ccc1CNC(=O)c1nc2n(c(=O)c1O)CCOC2(C)C` [Example 213, Phosphonic acid, [5-fluoro-2-[[[(4,6,7,9-tetrahydro-3-hydroxy-9,9-dimethyl-4-oxopyrimido[2,1-c][1,4]oxazin-2-yl)carbonyl]amino]methyl]phenyl]-, diethyl ester], for which the melting point was 124 °C. In addition, in data set [1] (setting [3]), the pIC50 is 7.00 to 8.70.
In turn, `CCC1OCCn2c1nc(C(=O)NCc1ccc(F)cc1-n1cnc(C)n1)c(O)c2=O` (centres unmarked) [Example 284, Pyrimido[2,1-c][1,4]oxazine-2-carboxamide, 9-ethyl-N-[[4-fluoro-2-(3-methyl-1H-1,2,4-triazol-1-yl)phenyl]methyl]-4,6,7,9-tetrahydro-3-hydroxy-4-oxo-e] came in with a melting point of 213 °C. Moreover, in data set [2], the pEC50 was 7.00 to 8.52. The pIC50 in data set [1] (setting [4]) was 7.00 to 8.70.
Taken in the same sequence, the figures for `Cn1ccc(-c2cc(F)ccc2CNC(=O)c2nc3n(c(=O)c2O)CCOC3(C)C)n1` [Example 286, Pyrimido[2,1-c][1,4]oxazine-2-carboxamide, N-[[4-fluoro-2-(1-methyl-1H-pyrazol-3-yl)phenyl]methyl]-4,6,7,9-tetrahydro-3-hydroxy-9,9-dimethyl-4-oxo-] were 220 °C, 7.00 to 8.52 and 7.00 to 8.70.
The like results for `Cn1nccc1-c1cc(F)ccc1CNC(=O)c1nc2n(c(=O)c1O)CCOC2(C)C` [Example 287, Pyrimido[2,1-c][1,4]oxazine-2-carboxamide, N-[[4-fluoro-2-(1-methyl-1H-pyrazol-5-yl)phenyl]methyl]-4,6,7,9-tetrahydro-3-hydroxy-9,9-dimethyl-4-oxo-] were, in that order, 221 °C, 7.00 to 8.52 and 7.00 to 8.70.
Taken in the same sequence, the figures for `Cc1ncn(-c2ccccc2CNC(=O)c2nc3n(c(=O)c2O)CCOC3(C)C)n1` [Example 288, Pyrimido[2,1-c][1,4]oxazine-2-carboxamide, 4,6,7,9-tetrahydro-3-hydroxy-9,9-dimethyl-N-[[2-(3-methyl-1H-1,2,4-triazol-1-yl)phenyl]methyl]-4-oxo-e] were 234 °C (dec.), 7.00 to 8.52 and 7.00 to 8.70.
Consider `COP(=O)(OC)c1cc(F)ccc1CNC(=O)c1nc2n(c(=O)c1O)CCCOC2(C)C` [Example 318, Phosphonic acid, [5-fluoro-2-[[[(4,7,8,10-tetrahydro-3-hydroxy-10,10-dimethyl-4-oxo-6H-pyrimido[2,1-c][1,4]oxazepin-2-yl)carbonyl]amino]methyl]phenyl]-, dimethyl ester], for which, in data set [2], the pEC50 was 7.00 to 8.52. The pIC50 in data set [1] (setting [4]) was 7.00 to 8.70.
`Cc1nc(C)n(-c2cc(F)ccc2CNC(=O)c2nc3n(c(=O)c2O)CCCOC3(C)C)n1` [Example 319, 6H-Pyrimido[2,1-c][1,4]oxazepine-2-carboxamide, N-[[2-(3,5-dimethyl-1H-1,2,4-triazol-1-yl)-4-fluorophenyl]methyl]-4,7,8,10-tetrahydro-3-hydroxy-10,10-dimethyl-4-oxo-]: the pEC50 in data set [2] is 7.00 to 8.52. Also, in data set [1] (setting [4]), the pIC50 was 7.00 to 8.70.
